Assay results from patent US7001588B2, “Expanded porphyrin compositions for tumor inhibition” (Cylene Pharmaceuticals, priority 2002, dated 2006).
“Also recorded” adds a separate entry of the source. Like-named read-outs stand apart in the source and are kept apart here.

How the values were obtained:
[1] = molecular target: c-MYC G-quadruplex (PU27 c-MYC sequence); assay: G-quadruplex polymerase stop assay, PU27 c-MYC template; format: biochemical; conditions: for EC50: Taq polymerase stop product, PU27 c-MYC template, 55° C., read-out: c-MYC (ED50 μM); for fold selectivity/preference for the c-MYC G-quadruplex over the human telomeric G-quadruplex: from ED50 values
[2] = test system: human telomeric G-quadruplex; assay: G-quadruplex polymerase stop assay, human telomeric template; format: biochemical; conditions: for EC50: Taq polymerase stop product, four TTAGGG repeats template, 37° C., read-out: Huam Telomeric (ED50 μM)
Duplex DNA = assay: Polymerase stop assay, pausing at primer position (duplex product); format: biochemical; conditions: for Duplex DNA (ED30 μM): normalized percentage of duplex product; for Duplex DNA ED30, fold in parentheses (relative to c-MYC ED50): value in parentheses (×)
Protocol: These were synthesized and purified as described above. Labeled primer (100 nM) and template DNA (100 nM) were annealed in an annealing buffer (50 mM Tris-HCl, pH 7.5, 10 mM NaCl) by heating to 95° C. and then slowly cooled to room temperature. […] KCl and NaCl (10 mM each) were added to the reaction. Taq DNA polymerase was added, and the mixture was incubated at 55° C. for 20 min.
Pausing at the G-quadruplex forming site is quantified as the normalized percentage of stop product with respect to the total intensity per lane. […] This is quantified as the normalized percentage of duplex product with respect to the total intensity per lane.

[3] = test system: c-MYC expression in HeLa S3 cells; assay: Effect on c-MYC transcription (real-time PCR, normalized to β-actin); format: cell-based, human; conditions: at high (100 μM) concentration, 24 h
c-MYC G-quadruplex = assay: Photomediated strand cleavage reaction
HeLa S3 cells = assay: In vitro cytotoxicity assay (CellTiter 96 MTS); format: cell-based, human
Protocol: HeLa S3 (human cervical carcinoma metastasis were obtained from ATCC, and were cultured in Dulbecco's modification of Eagle's Medium (DMEM, Cellgro) with 10% FBS, 50 U/ml penicillin G sodium, 50 U/ml streptomycin sulfate. Adherent cells were grown to 80% confluency and passaged at 1:10 in the following fashion. The medium was aspirated by vacuum, and the cells were washed with 1×PBS (Cellgro). Sufficient trypsin (Gibco/BRL) was added to cover the cells, and cells were incubated at room temperature for approximately 3 min, or until cells detached from the flask with firm tapping. The trypsin was neutralized with an equal volume of culture medium, and the cells were counted using a haemocytometer and passaged at 1:10 into fresh medium. […]
In vitro cytotoxicity assays were performed using the CellTiter 96 Non-Radioactive Cell Proliferation Assay (Promega Corp., Madison, Wis.). […] Absorbance was measured using a Wallac Victor Multilabel Counter (Perkin Elmer, Shelton, Conn.) at 490 nm. Data were expressed as the percentage of survival of control calculated from the absorbance corrected for background absorbance. The surviving fraction of cells was determined by dividing the mean absorbance values of the test agents by the mean absorbance values of untreated control.

EC50 [1] [µM] | fold selectivity/preference for the c-MYC G-quadruplex over the human telomeric G-quadruplex [1] | concentration giving complete arrest of the polymerase synthesis at the G-quadruplex forming site ([1]; template containing c-MYC sequence, FIG. 5A) [µM] | interaction with the human telomeric G-quadruplex structure (ED50 can't be calculated) [2] | pausing in the polymerase synthesis at the G-quadruplex forming site ([2]; at 20 μM, template containing human telomeric sequence, FIG. 5B) | Molecule | duplex (or single strand) DNA binding, in words (Duplex DNA) | inhibitory effect on c-MYC expression [3] | photoinduced cleavage of c-MYC G-quadruplex / photoactivity (c-MYC G-quadruplex; compared to TMPyP4, FIG. 7) | EC50 [2] [µM] | Duplex DNA (ED30 μM) (Duplex DNA) | Duplex DNA ED30, fold in parentheses (relative to c-MYC ED50) (Duplex DNA) | EC50 (HeLa S3 cells) [µM] | EC50 (HeLa S3 cells; HeLa S3, 4 days, MTS, FIG. 8, read-out: cytotoxicity ED50) [µM] | photoinduced cleavage of c-MYC G-quadruplex (c-MYC G-quadruplex; at 1 μM, FIG. 6 lane 2)
0.025 | greater than 1,000 fold | 0.04 | only very little interaction | little pausing | 5,10,15,20-tetra(N-methyl-3-pyridyl)-26,28-diselena sapphyrin chloride [Se2SAP] | little or no duplex binding activity; also recorded: absence of duplex binding | comparable to TMPyP4; also recorded: same as that of TMPyP4 | minimal cleavage; also recorded: not photoactive | – | – | – | – | – | –
2.34 | 8 fold | – | – | – | C[n+]1cccc(-c2c3nc(c(-c4ccc[n+](C)c4)c4ccc([nH]4)c(-c4ccc[n+](C)c4)c4nc(c(-c5ccc[n+](C)c5)c5ccc2[nH]5)C=C4)C=C3)c1 [TMPyP3] | – | – | – | 19.5 | >50 (>50) μM | >50 (>50) | 43.4 | – | –

Molecule | EC50 [1] [µM] | fold selectivity/preference for the c-MYC G-quadruplex over the human telomeric G-quadruplex [1] | concentration giving complete arrest of the polymerase synthesis at the G-quadruplex forming site ([1]; template containing c-MYC sequence, FIG. 5A) [µM] | interaction with the human telomeric G-quadruplex structure (ED50 can't be calculated) [2] | pausing in the polymerase synthesis at the G-quadruplex forming site ([2]; at 20 μM, template containing human telomeric sequence, FIG. 5B) | duplex (or single strand) DNA binding, in words (Duplex DNA) | inhibitory effect on c-MYC expression [3] | photoinduced cleavage of c-MYC G-quadruplex / photoactivity (c-MYC G-quadruplex; compared to TMPyP4, FIG. 7) | EC50 [2] [µM] | Duplex DNA (ED30 μM) (Duplex DNA) | Duplex DNA ED30, fold in parentheses (relative to c-MYC ED50) (Duplex DNA) | EC50 (HeLa S3 cells) [µM] | EC50 (HeLa S3 cells; HeLa S3, 4 days, MTS, FIG. 8, read-out: cytotoxicity ED50) [µM] | photoinduced cleavage of c-MYC G-quadruplex (c-MYC G-quadruplex; at 1 μM, FIG. 6 lane 2)
C[n+]1ccc(-c2c3nc(c(-c4cc[n+](C)cc4)c4ccc([nH]4)c(-c4cc[n+](C)cc4)c4ccc([nH]4)c(-c4cc[n+](C)cc4)c4nc2C=C4)C=C3)cc1 [TMPyP4] | 0.99 | 19 fold | – | – | – | little or no duplex binding activity | – | – | 18.9 | >50 (>50) μM | >50 (>50) | – | 25.6 | considerable cleavage pattern
